Laboratory results from ChEMBL document CHEMBL1144845, “Ligand binding efficiency: trends, physical basis, and implications” (J Med Chem, 2008).

Test: Binding affinity to carbonic anhydrase

**Q.** For `Cc1ccc(S(N)(=O)=O)cc1` [P-TOLUENESULFONAMIDE], which “Log Ki” value is on record?
**A.** -6.5

**Q.** For `CC(C)(C)c1ccc(C(=O)Nc2ccccc2S(N)(=O)=O)cc1`, which “Log Ki” value is on record?
**A.** -6.6

**Q.** With `CN1C(CN2CCOCC2)=Cc2sc(S(N)(=O)=O)cc2S1(=O)=O` as the compound, how does the “Log Ki” value read?
**A.** -9.7
